Laboratory results as given in article PMC4452296, “Comparison of Paeoniflorin and Albiflorin on Human CYP3A4 and CYP2D6” (Evidence-based Complementary and Alternative Medicine : eCAM, 2015).
pIC50: −log10 of the molar value.

How the values were obtained:
CYP3A4 = CYP3A4 (Homo sapiens, UniProt P08684); experiment: biochemical
CYP2D6 = CYP2D6 (Homo sapiens, UniProt P10635); experiment: biochemical
CYP2D6, sequence (P10635 whole entry): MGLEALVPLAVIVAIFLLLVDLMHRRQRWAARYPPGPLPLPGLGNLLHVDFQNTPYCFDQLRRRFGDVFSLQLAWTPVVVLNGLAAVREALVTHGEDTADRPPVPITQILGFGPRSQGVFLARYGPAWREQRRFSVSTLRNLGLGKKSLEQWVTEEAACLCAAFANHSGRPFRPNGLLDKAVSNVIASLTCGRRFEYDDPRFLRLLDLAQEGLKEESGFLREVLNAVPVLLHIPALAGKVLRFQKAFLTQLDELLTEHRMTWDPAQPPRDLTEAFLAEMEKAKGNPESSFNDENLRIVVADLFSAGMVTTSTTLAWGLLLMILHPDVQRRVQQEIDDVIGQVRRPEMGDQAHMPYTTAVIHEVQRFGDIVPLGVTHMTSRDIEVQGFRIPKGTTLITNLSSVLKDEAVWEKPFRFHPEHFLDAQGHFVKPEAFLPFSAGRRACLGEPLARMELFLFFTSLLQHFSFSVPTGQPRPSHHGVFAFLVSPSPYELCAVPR

CYP3A4, sequence (P08684 2-503): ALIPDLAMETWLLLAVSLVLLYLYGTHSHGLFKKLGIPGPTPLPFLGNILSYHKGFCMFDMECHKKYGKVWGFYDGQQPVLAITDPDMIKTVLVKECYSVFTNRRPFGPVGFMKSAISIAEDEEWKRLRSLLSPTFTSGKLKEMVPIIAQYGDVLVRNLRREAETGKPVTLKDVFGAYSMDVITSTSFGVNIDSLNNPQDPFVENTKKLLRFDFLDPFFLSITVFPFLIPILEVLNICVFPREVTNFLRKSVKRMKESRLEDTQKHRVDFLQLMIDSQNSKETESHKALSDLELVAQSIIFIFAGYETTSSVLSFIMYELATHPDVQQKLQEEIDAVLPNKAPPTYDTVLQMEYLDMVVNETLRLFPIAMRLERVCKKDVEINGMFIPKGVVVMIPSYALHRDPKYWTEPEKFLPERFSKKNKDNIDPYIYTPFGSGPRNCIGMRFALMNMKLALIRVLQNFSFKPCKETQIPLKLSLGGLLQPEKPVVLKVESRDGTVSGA

| pIC50 (CYP3A4) | pIC50 (CYP2D6) | Compound |
| --- | --- | --- |
| 2.32 | 1.90 | C[C@@]12C[C@@]3(O)O[C@@H](O1)[C@]1(COC(=O)c4ccccc4)[C@H]3C[C@@]12O[C@@H]1O[C@H](CO)[C@@H](O)[C@H](O)[C@H]1O [paeoniflorin] |
| 1.94 | 1.84 | CC12CC(O)C3CC1(O[C@@H]1O[C@H](CO)[C@@H](O)[C@H](O)[C@H]1O)C3(COC(=O)c1ccccc1)C(=O)O2 (stereo partly shown) [albiflorin] |
